Each block holds one compound with its values, some of them ahead of it.
Columns and labels:
recombinant RAF1 = target: T1, recombinant RAF1 (Homo sapiens, UniProt P04049); assay: RAF1 (CRAF) substrate assay; format: biochemical; settings: RAF1-HEK293T proteomes
T1 construct: expressed in transfected cells; host or cells: HEK293T
Description: Given the potential for indirect inhibitory effects in the competition studies in lysates, ritanserin activity was tested in a CRAF substrate assay. Ritanserin inhibition was measured against recombinant RAF1 using commercial substrate assays. […] RAF1 was overexpressed in HEK293T cells and measured recombinant RAF1 activity by comparing with non-transfected HEK293T (i.e. mock) proteomes.

A549 cells = assay: CaspaseGlo 3/7 assay; format: cell-based; settings: 24 hours
Description: (§1) Caspase Glo Assays. Assays were performed as directed by the manufacturer (Promega). Briefly, tumor cells were plated in black tissue-culture treated transparent-bottom 96 well plates at a density of 200,000 cells/mL (A549, H1650) or 400,000 cells/mL (H82) in a volume of 50 μL/well. Cells were treated with inhibitors at the indicated concentrations (final DMSO concentration of 0.5%) for 24 hrs at 37° C. under 5% CO2. Afterwards, 50 μL of the prepared CaspaseGlo reagent was added to each well. The reaction was allowed to proceed at 37° C. under 5% CO2 for 1 hr, at which point the cells were shaken in an orbital shaker at 500 rpm for 60 s and then luminescence was read for each well. Data were normalized to DMSO-treated wells and significance values determined with one-way ANOVA.

H82 cells = assay: CaspaseGlo 3/7 assay; format: cell-based; settings: 24 hours
Description: as §1

H1650 cells = assay: CaspaseGlo 3/7 assay; format: cell-based; settings: 24 hours
Description: as §1

CRAF = target: T2, CRAF (Homo sapiens, UniProt P04049); assay: ATP acyl phosphate chemical proteomics in lung cancer cell proteomes; format: binding; settings: for CRAF ATP acyl-phosphate labeling response (words, FIG. 20): H82 and HEK293T lysates, 100 μM Rit, 1 mM RF001
T2 construct: measure selectivity of compounds against native kinases detected in lung cancer proteomes; endogenous in cells; host or cells: H82 small cell lung cancer (and HEK293T) cell lysates; CRAF not detected in A549
Description: (§2) LC-MS analysis of SILAC samples using ATP acyl phosphates. Quantitative chemoproteomics was performed as previously described (Franks et al., 2017; McCloud et al., 2018).
(§3) Computational Methods. Data for A549 and H82 cell lines were searched with IP2 and manually validated using the methods previously described (Franks et al., 2017). Data for Desthiobiotin-tagged ATP acyl-phosphate probes and ATP competitive peptides were compared and clustered. Ritanserin and ketanserin inhibition profiles were compared using SILAC ratios and normalized to DMSO.
(§4) Based on previous chemical proteomics (Franks, 2017), it was hypothesized that ritanserin is functioning as a kinase inhibitor to mediate cytotoxicity in the lung cancer cell models. […] For these studies, NSCLC and SCLC cells were cultured in isotopically light and heavy amino acids to enable quantitative chemical proteomics (Chang. 2015) by stable isotope labeling with amino acids in cell culture (SILAC, FIG. 17A). […] After probe labeling, light and heavy proteomes were combined, digested with trypsin protease, and desthiobiotin-modified peptides enriched by avidin affinity chromatography and analyzed by LC-MS/MS to identify and quantify isotopically tagged active-site peptides from native kinases as previously described(Franks, 2017) (FIG. 17A).
(§5) To further confirm that ritanserin is a CRAF inhibitor, a targeted parallel reaction monitoring method (PRM) was developed to evaluate compound activity against CRAF and other members of the RAF family (ARAF and BRAF). Targeted PRM was needed because of the low abundance of CRAF compared with ARAF and BRAF). […] Ritanserin activity was also measured against RAF kinases in A549 proteomes using the targeted LC-MS method. […] The data further support previous findings that this RAF member is enriched in SCLC cells (REF).

ARAF = target: T3, ARAF (Homo sapiens, UniProt P10398); assay: ATP acyl phosphate chemical proteomics in lung cancer cell proteomes (targeted PRM); format: binding; settings: H82 proteomes
T3 construct: measure selectivity of compounds against native kinases detected in lung cancer proteomes; endogenous in cells; host or cells: H82 (and A549) cell proteomes
Description: as §2, §5

TLK2 = target: T4, TLK2 (Homo sapiens, UniProt Q86UE8); assay: ATP acyl phosphate chemical proteomics in lung cancer cell proteomes; format: binding; settings: 100 μM; A549 and H82 proteomes
T4 construct: measure selectivity of compounds against native kinases detected in lung cancer proteomes; endogenous in cells; host or cells: A549 and H82 lung cancer cell proteomes
Description: as §2, §3, §4

FER = target: T5, FER (Homo sapiens, UniProt P16591); assay: as above; format: binding; settings: 100 μM; A549 and H82 proteomes
T5 construct: measure selectivity of compounds against native kinases detected in lung cancer proteomes; endogenous in cells; host or cells: A549 and H82 lung cancer cell proteomes
Description: as §2, §3, §4

[1] = humans, cited from earlier work

T2 sequence (P04049 whole entry): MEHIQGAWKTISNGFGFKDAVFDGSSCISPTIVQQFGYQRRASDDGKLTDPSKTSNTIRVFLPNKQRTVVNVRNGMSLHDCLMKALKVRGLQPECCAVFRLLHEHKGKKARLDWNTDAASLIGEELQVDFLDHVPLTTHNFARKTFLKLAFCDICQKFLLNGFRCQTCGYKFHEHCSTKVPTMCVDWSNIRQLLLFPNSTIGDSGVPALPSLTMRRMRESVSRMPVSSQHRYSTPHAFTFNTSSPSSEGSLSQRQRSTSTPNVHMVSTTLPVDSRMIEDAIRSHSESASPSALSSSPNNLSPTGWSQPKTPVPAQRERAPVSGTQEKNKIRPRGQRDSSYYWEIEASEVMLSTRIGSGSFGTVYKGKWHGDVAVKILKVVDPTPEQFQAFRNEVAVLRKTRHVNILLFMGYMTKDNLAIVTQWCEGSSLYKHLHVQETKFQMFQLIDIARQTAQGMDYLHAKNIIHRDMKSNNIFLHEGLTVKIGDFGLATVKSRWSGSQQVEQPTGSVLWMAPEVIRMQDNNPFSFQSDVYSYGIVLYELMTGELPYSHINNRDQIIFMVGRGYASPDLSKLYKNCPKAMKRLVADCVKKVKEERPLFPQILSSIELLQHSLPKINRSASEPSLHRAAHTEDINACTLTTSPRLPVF
T1 sequence (P04049 whole entry): as above
T3 sequence (P10398 whole entry): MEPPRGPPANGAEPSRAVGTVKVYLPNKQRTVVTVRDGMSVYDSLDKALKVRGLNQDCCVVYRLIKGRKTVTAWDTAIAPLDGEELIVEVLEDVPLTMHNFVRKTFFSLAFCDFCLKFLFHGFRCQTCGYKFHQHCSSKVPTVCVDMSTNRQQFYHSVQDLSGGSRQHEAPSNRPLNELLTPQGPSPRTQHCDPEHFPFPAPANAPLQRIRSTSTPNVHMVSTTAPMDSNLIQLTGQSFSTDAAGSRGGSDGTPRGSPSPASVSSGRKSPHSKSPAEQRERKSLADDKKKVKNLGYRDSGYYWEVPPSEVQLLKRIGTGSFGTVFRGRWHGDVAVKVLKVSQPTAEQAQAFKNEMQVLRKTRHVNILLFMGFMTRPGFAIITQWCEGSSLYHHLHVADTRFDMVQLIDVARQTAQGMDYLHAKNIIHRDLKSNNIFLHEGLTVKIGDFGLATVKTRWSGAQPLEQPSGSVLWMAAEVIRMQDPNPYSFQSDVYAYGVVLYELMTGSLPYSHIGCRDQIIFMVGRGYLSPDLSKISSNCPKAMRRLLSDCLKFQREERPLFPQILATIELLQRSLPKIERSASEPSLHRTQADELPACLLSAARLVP
T4 sequence (Q86UE8 whole entry): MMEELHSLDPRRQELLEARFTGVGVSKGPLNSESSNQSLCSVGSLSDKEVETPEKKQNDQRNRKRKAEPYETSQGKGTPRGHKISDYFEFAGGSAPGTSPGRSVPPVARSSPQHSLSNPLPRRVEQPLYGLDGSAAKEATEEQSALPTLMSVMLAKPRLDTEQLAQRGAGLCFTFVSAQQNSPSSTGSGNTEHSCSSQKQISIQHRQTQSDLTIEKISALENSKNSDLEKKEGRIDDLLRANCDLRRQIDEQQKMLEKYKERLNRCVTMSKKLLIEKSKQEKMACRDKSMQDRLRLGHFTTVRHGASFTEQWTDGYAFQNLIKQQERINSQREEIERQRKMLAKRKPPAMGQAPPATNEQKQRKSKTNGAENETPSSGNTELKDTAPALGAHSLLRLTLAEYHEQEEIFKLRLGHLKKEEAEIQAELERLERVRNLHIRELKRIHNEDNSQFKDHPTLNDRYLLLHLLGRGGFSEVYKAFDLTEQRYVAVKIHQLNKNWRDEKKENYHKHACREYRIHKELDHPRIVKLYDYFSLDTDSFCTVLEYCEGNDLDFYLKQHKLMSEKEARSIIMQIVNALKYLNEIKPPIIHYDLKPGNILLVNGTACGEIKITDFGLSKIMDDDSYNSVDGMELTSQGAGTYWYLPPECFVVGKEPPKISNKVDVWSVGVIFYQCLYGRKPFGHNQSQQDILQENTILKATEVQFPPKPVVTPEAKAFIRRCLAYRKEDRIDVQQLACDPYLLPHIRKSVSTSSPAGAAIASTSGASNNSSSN
T5 sequence (P16591 whole entry): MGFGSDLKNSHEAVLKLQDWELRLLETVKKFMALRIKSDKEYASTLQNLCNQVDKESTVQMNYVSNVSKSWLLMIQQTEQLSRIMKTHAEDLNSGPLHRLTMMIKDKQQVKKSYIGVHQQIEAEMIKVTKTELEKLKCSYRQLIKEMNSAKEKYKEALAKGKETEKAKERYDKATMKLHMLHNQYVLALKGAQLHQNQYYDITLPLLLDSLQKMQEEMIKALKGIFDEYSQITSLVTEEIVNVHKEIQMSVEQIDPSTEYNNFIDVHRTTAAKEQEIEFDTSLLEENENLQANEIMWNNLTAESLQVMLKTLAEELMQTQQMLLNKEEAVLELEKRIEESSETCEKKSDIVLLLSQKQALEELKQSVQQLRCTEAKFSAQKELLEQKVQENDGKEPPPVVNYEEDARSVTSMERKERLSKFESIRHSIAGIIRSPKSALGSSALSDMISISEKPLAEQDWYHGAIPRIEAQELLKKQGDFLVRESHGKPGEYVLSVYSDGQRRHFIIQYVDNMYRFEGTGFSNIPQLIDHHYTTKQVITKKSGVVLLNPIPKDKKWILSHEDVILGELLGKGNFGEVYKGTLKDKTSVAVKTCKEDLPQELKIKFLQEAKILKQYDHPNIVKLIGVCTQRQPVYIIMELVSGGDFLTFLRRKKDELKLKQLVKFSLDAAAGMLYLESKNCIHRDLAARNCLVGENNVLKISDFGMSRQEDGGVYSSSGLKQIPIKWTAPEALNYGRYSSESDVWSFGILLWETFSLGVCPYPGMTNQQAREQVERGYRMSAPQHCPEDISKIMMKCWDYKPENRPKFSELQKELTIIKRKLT

- blockade of recombinant RAF1 activity (recombinant RAF1): not ketanserin
SMILES: O=C(c1ccc(F)cc1)C1CCN(CCn2c(=O)[nH]c3ccccc3c2=O)CC1 [Ketanserin]
- caspase 3/7 activity (A549 cells): did not induce these effects
- caspase 3/7 activity (H82 cells): did not induce these effects
- caspase 3/7 activity (H1650 cells): did not induce these effects

- CRAF ATP acyl-phosphate labeling response (words, FIG. 20) (CRAF): inactivates CRAF
SMILES: Fc1ccc(C(=C2CCNCC2)c2ccc(F)cc2)cc1 [RF001, 4-(Bis(4-fluorophenyl)methylene) piperidine]

SMILES: Cc1nc2sccn2c(=O)c1CCN1CCC(=C(c2ccc(F)cc2)c2ccc(F)cc2)CC1 [Ritanserin]
- activity by targeted PRM (ARAF): negligible activity
- kinase target by SILAC ratio criterion (TLK2): most potent targets
- kinase target by SILAC ratio criterion (FER): most potent targets
- blockade of recombinant RAF1 activity (recombinant RAF1): concentrations dependent blockade of recombinant RAF1 activity
- kinase target by SILAC ratio criterion (CRAF; 100 μM, A549 and H82 proteomes): most potent targets
- CRAF ATP acyl-phosphate labeling response (words, FIG. 20) (CRAF): inactivates CRAF
- activity by targeted PRM (CRAF; H82 proteomes): potent activity against CRAF
- adverse side effects [1]: lack of adverse side effects
- half-life ([1]; oral): ~40 h
- caspase 3/7 activity (A549 cells): lower degree of activation
- caspase 3/7 activity (H82 cells): comparable activation of caspase 3/7 compared with staurosporine
- caspase 3/7 activity (H1650 cells): comparable activation of caspase 3/7 compared with staurosporine

From patent publication US12643867B2, “Compositions and uses thereof” (University of Virginia Patent Foundation, priority 2017, dated 2026)
